pEC50, pKi: −log10 of the molar value. Where a SMILES comes first, the peptide text is derived from it.

For assay [1], the target named is Melanocyte-stimulating hormone receptor (Mus musculus, UniProt Q01727). In words: Agonist activity to the mouse Melanocortin-1 receptor (mMC1R). In kind it is functional.
Another assay addresses Melanocortin receptor 5 (Mus musculus, UniProt P41149). The assay can be described thus: Agonist activity towards mouse Melanocortin-5 receptor (mMC5R). The class given is functional.
The target in a further assay is Melanocortin receptor 4 (Mus musculus, UniProt P56450). The assay can be described thus: Agonist activity to the mouse Melanocortin-4 receptor (mMC4R). In kind it is functional.
Sequence of Melanocortin receptor 4 (P56450 whole entry): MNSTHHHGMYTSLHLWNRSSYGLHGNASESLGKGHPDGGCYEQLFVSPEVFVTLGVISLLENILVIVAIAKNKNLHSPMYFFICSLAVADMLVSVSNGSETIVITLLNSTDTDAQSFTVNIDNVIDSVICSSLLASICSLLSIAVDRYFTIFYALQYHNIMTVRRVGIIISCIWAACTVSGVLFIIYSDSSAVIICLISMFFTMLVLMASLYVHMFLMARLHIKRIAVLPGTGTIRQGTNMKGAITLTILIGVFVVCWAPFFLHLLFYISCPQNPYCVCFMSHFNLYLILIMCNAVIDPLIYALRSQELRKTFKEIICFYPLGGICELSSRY
Assay [2] concerns the target T1, Melanocortin receptor 3 (Mus musculus, UniProt P33033). In words: Agonist activity to the mouse Melanocortin-3 receptor (mMC3R). In kind it is functional.
Assay [3] deals with T1, Melanocortin receptor 3. The assay can be described thus: Agonist activity of compound towards mouse Melanocortin-3 receptor (mMC3R); partial agonist. The class given is functional. The settings on record: read-out: pA2 (converted).
Assay [4] concerns the target T1, Melanocortin receptor 3. The assay can be described thus: Binding constant (Ki) at mouse Melanocortin-3 receptor.

Sequence of Melanocortin receptor 5 (P41149 whole entry): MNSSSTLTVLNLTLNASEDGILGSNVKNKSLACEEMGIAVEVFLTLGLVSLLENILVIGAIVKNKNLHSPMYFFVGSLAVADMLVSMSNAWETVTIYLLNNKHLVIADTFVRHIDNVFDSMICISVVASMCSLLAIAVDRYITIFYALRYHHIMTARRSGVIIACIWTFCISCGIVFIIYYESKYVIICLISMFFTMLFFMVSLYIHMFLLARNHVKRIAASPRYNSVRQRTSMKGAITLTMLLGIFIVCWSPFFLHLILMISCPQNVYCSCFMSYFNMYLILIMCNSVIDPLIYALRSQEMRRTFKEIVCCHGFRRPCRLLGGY
T1 sequence (P33033 whole entry): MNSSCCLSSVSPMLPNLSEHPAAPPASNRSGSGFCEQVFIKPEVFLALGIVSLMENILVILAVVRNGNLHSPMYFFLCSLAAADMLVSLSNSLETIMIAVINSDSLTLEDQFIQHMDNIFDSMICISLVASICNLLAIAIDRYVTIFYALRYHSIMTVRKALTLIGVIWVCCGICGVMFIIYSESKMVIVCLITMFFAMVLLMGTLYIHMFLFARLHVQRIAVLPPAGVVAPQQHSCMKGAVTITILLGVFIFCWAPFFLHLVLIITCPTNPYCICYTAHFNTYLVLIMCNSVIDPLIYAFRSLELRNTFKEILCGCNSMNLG
Sequence of Melanocyte-stimulating hormone receptor (Q01727 whole entry): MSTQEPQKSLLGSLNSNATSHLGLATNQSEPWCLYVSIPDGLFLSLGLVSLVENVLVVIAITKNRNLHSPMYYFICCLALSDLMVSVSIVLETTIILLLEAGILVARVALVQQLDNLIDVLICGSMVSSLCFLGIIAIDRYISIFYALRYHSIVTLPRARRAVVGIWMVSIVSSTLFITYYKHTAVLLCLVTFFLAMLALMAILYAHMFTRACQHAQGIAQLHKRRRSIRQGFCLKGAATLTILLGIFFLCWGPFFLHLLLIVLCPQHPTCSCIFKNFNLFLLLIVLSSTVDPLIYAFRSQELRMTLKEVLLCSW

For `CC(=O)N[C@@H](Cc1c[nH]cn1)C(=O)N[C@@H](CCc1ccccc1)C(=O)N[C@@H](CCCN=C(N)N)C(=O)N[C@@H](Cc1c[nH]c2ccccc12)C(N)=O`, the pEC50 in assay [1] is 4.48; on Melanocortin receptor 5, 4.93; at Melanocortin receptor 4, below 4.00; at Melanocortin receptor 3 [2], below 4.00.

As for `CC(=O)N[C@@H](Cc1cnc[nH]1)C(=O)N[C@H](Cc1ccc2ccccc2c1)C(=O)N[C@@H](CCCNC(=N)N)C(=O)N[C@@H](Cc1c[nH]c2ccccc12)C(N)=O`, the pEC50 in assay [1] was 6.78; on Melanocortin receptor 5 it was 7.46. Further, on Melanocortin receptor 3 [3], the Kb is 0.295 µM. Also, the pKi at Melanocortin receptor 3 [4] is 6.53.

On to `CC(=O)N[C@@H](Cc1cnc[nH]1)C(=O)N[C@@H](Cc1cccnc1)C(=O)N[C@@H](CCCNC(=N)N)C(=O)N[C@@H](Cc1c[nH]c2ccccc12)C(N)=O`, for which the pEC50 was 4.64 in assay [1], 4.44 at Melanocortin receptor 5, below 4.00 on Melanocortin receptor 4 and below 4.00 on Melanocortin receptor 3 [2].

With `CC(=O)N[C@@H](Cc1c[nH]cn1)C(=O)N[C@@H](Cc1ccc2ccccc2c1)C(=O)N[C@@H](CCCN=C(N)N)C(=O)N[C@@H](Cc1c[nH]c2ccccc12)C(N)=O`, the pEC50 in assay [1] was 4.66; at Melanocortin receptor 5, 5.13; on Melanocortin receptor 3 [2], below 4.00.

Consider `CC(=O)N[C@@H](Cc1cnc[nH]1)C(=O)N[C@H](Cc1ccc(O)cc1)C(=O)N[C@@H](CCCNC(=N)N)C(=O)N[C@@H](Cc1c[nH]c2ccccc12)C(N)=O`, for which the pEC50 in assay [1] was 5.49; on Melanocortin receptor 5, 6.20; at Melanocortin receptor 4, 5.62; at Melanocortin receptor 3 [2], 4.47.

Consider `CC(=O)N[C@@H](Cc1c[nH]cn1)C(=O)N[C@@H](C(=O)N[C@@H](CCCN=C(N)N)C(=O)N[C@@H](Cc1c[nH]c2ccccc12)C(N)=O)C(c1ccccc1)c1ccccc1`, for which the pEC50 was 5.82 in assay [1], 5.37 at Melanocortin receptor 5, 5.30 on Melanocortin receptor 4 and below 4.00 on Melanocortin receptor 3 [2].

In the case of `CC(=O)N[C@@H](Cc1cnc[nH]1)C(=O)N[C@H](C(=O)N[C@@H](CCCNC(=N)N)C(=O)N[C@@H](Cc1c[nH]c2ccccc12)C(N)=O)c1ccccc1`, the pEC50 was 4.83 in assay [1], 5.40 on Melanocortin receptor 5, 4.39 on Melanocortin receptor 4 and 4.36 at Melanocortin receptor 3 [2].

As for `CC(=O)N[C@@H](Cc1c[nH]cn1)C(=O)N[C@@H](C(=O)N[C@@H](CCCN=C(N)N)C(=O)N[C@@H](Cc1c[nH]c2ccccc12)C(N)=O)c1ccccc1`, the pEC50 in assay [1] is 4.77; on Melanocortin receptor 4, below 4.00; at Melanocortin receptor 3 [2], below 4.00.

Regarding `CC(=O)N[C@@H](Cc1c[nH]cn1)C(=O)N[C@H](Cc1ccc(-c2ccccc2)cc1)C(=O)N[C@@H](CCCN=C(N)N)C(=O)N[C@@H](Cc1c[nH]c2ccccc12)C(N)=O`, the pEC50 in assay [1] was 7.55; on Melanocortin receptor 5, 7.94; on Melanocortin receptor 4 it was 7.16; at Melanocortin receptor 3 [2], 5.69.

`CC(=O)N[C@@H](Cc1cnc[nH]1)C(=O)N[C@@H](Cc1cccc2ccccc12)C(=O)N[C@@H](CCCNC(=N)N)C(=O)N[C@@H](Cc1c[nH]c2ccccc12)C(N)=O`: the pEC50 in assay [1] was 4.82; at Melanocortin receptor 5 it was 4.95; on Melanocortin receptor 4, below 4.00; on Melanocortin receptor 3 [2], below 4.00.

For `CC(=O)N[C@@H](Cc1cnc[nH]1)C(=O)N[C@H](Cc1cccc2ccccc12)C(=O)N[C@@H](CCCNC(=N)N)C(=O)N[C@@H](Cc1c[nH]c2ccccc12)C(N)=O`, the pEC50 was 6.45 in assay [1], 7.29 at Melanocortin receptor 5, 6.52 at Melanocortin receptor 4 and 5.39 on Melanocortin receptor 3 [2].

`CC(=O)N[C@@H](Cc1c[nH]cn1)C(=O)N[C@H](Cc1c[nH]c2ccccc12)C(=O)N[C@@H](CCCN=C(N)N)C(=O)N[C@@H](Cc1c[nH]c2ccccc12)C(N)=O`: the pEC50 in assay [1] was 4.60; at Melanocortin receptor 5, 5.16; at Melanocortin receptor 4 it was below 4.00; on Melanocortin receptor 3 [2], below 4.00.

For the compound `CC(=O)N[C@@H](Cc1cnc[nH]1)C(=O)N[C@@H](Cc1ccc(-c2ccccc2)cc1)C(=O)N[C@@H](CCCNC(=N)N)C(=O)N[C@@H](Cc1c[nH]c2ccccc12)C(N)=O`, the pEC50 in assay [1] was 4.97; on Melanocortin receptor 5, 5.26; at Melanocortin receptor 3 [2], below 4.00.

Turning to `CC(=O)N[C@@H](Cc1cnc[nH]1)C(=O)N[C@@H](Cc1ccncc1)C(=O)N[C@@H](CCCNC(=N)N)C(=O)N[C@@H](Cc1c[nH]c2ccccc12)C(N)=O`, the negative-log EC50 (pEC50) in assay [1] is 4.44; on Melanocortin receptor 5, 5.01; at Melanocortin receptor 4 it was 4.61; on Melanocortin receptor 3 [2], below 4.00.

`CC(=O)N[C@@H](Cc1cnc[nH]1)C(=O)N[C@H](CCc1ccccc1)C(=O)N[C@@H](CCCNC(=N)N)C(=O)N[C@@H](Cc1c[nH]c2ccccc12)C(N)=O`: the pEC50 in assay [1] was 5.20; at Melanocortin receptor 5 it was 5.55; at Melanocortin receptor 4, 4.95; at Melanocortin receptor 3 [2], below 4.00.

On to `CC(=O)N[C@@H](Cc1cnc[nH]1)C(=O)N[C@@H](Cc1c[nH]c2ccccc12)C(=O)N[C@@H](CCCNC(=N)N)C(=O)N[C@@H](Cc1c[nH]c2ccccc12)C(N)=O`, for which the pEC50 in assay [1] was 4.48; on Melanocortin receptor 5 it was 4.74; at Melanocortin receptor 4, 4.46; at Melanocortin receptor 3 [2], below 4.00.

For the compound `CC(=O)N[C@@H](Cc1cnc[nH]1)C(=O)N[C@H](C(=O)N[C@@H](CCCNC(=N)N)C(=O)N[C@@H](Cc1c[nH]c2ccccc12)C(N)=O)C(c1ccccc1)c1ccccc1`, the pEC50 is 4.72 in assay [1], below 4.00 at Melanocortin receptor 5, below 4.00 at Melanocortin receptor 4 and below 4.00 at Melanocortin receptor 3 [2].

At Melanocortin receptor 4, `CC(=O)N[C@@H](Cc1c[nH]cn1)C(=O)N[C@@H](Cc1ccccc1)C(=O)N[C@@H](CCCN=C(N)N)C(=O)N[C@@H](Cc1c[nH]c2ccccc12)C(N)=O` had a pEC50 of 8.68.

For the compound `CC(=O)N[C@@H](Cc1c[nH]cn1)C(=O)N1Cc2ccccc2C[C@@H]1C(=O)N[C@@H](CCCN=C(N)N)C(=O)N[C@@H](Cc1c[nH]c2ccccc12)C(N)=O`, the pEC50 in assay [1] was 4.39; on Melanocortin receptor 5 it was below 4.00; on Melanocortin receptor 4, below 4.00; at Melanocortin receptor 3 [2] it was below 4.00.

Regarding `CC(=O)N[C@@H](Cc1c[nH]cn1)C(=O)N1Cc2ccccc2C[C@H]1C(=O)N[C@@H](CCCN=C(N)N)C(=O)N[C@@H](Cc1c[nH]c2ccccc12)C(N)=O`, the pEC50 was 4.27 in assay [1], 4.67 on Melanocortin receptor 5, below 4.00 on Melanocortin receptor 4 and below 4.00 at Melanocortin receptor 3 [2].

Take `CC(=O)N[C@@H](Cc1cnc[nH]1)C(=O)N[C@@H](C)C(=O)N[C@@H](CCCNC(=N)N)C(=O)N[C@@H](Cc1c[nH]c2ccccc12)C(N)=O` (Ac-HARW-NH2): the negative logarithm of the EC50 (pEC50) in assay [1] is 4.52; on Melanocortin receptor 5, below 4.00; at Melanocortin receptor 4, below 4.00; on Melanocortin receptor 3 [2], below 4.00.

As for `CC(=O)N[C@@H](Cc1c[nH]cn1)C(=O)N[C@@H](Cc1c[nH]cn1)C(=O)N[C@@H](CCCN=C(N)N)C(=O)N[C@@H](Cc1c[nH]c2ccccc12)C(N)=O` (Ac-HHRW-NH2), the pEC50 in assay [1] is 4.38; at Melanocortin receptor 5 it was 4.39; at Melanocortin receptor 4, below 4.00; at Melanocortin receptor 3 [2] it was below 4.00.

As for `CC(=O)N[C@@H](Cc1cnc[nH]1)C(=O)N[C@@H](Cc1ccc(O)cc1)C(=O)N[C@@H](CCCNC(=N)N)C(=O)N[C@@H](Cc1c[nH]c2ccccc12)C(N)=O` (Ac-HYRW-NH2), the negative-log EC50 (pEC50) in assay [1] is 4.21; at Melanocortin receptor 5, 4.49; at Melanocortin receptor 4, below 4.00; at Melanocortin receptor 3 [2] it was below 4.00.

As for `CC(=O)N[C@@H](Cc1c[nH]cn1)C(=O)NC1(C(=O)N[C@@H](CCCN=C(N)N)C(=O)N[C@@H](Cc2c[nH]c3ccccc23)C(N)=O)CCc2ccccc2C1` (stereo in doubt; 25), the pEC50 in assay [1] is 5.63; on Melanocortin receptor 5, 6.58; on Melanocortin receptor 4 it was 5.75; at Melanocortin receptor 3 [2], 5.00.

`CC(=O)N[C@@H](Cc1c[nH]cn1)C(=O)NC1(C(=O)N[C@@H](CCCN=C(N)N)C(=O)N[C@@H](Cc2c[nH]c3ccccc23)C(N)=O)CCc2ccccc2C1` (stereo in doubt; 26): the pEC50 was 5.24 in assay [1], 5.68 at Melanocortin receptor 5, 5.15 at Melanocortin receptor 4 and 5.11 at Melanocortin receptor 3 [2].

For orientation: pEC50 means the negative decadic logarithm of the EC50, by convention in mol/L. Higher therefore signals a small EC50. The term pKi denotes −log10 of the Ki, conventionally taken in molar units. Higher therefore signals a small Ki.

The record behind these values is ChEMBL document CHEMBL1135504, “Structure-activity relationships of the melanocortin tetrapeptide Ac-His-DPhe-Arg-Trp-NH(2) at the mouse melanocortin receptors: part 2 modifications at the Phe position” (J Med Chem, 2002).
